{"source": "ChEMBL document CHEMBL3351271", "about": "“Design, synthesis and biological evaluation of novel potent MDM2/p53 small-molecule inhibitors” (Bioorg Med Chem Lett, 2015)", "key": {"[1]": {"experiment": "Cytotoxicity against p53 expressing human HCT116 cells after 48 hrs by MTT assay", "assay_type": "functional, cell-based", "conditions": "HCT-116, 48 h; call rule not given here"}, "HEK293": {"test_system": "HEK293", "experiment": "Cytotoxicity against HEK293 cells after 48 hrs by MTT assay", "assay_type": "cell-based", "conditions": "Homo sapiens, HEK293, 48 h"}, "[2]": {"experiment": "Cytotoxicity against p53 deficient human HCT116 cells after 48 hrs by MTT assay", "assay_type": "functional, cell-based", "conditions": "HCT-116, 48 h"}, "HepG2": {"test_system": "HepG2", "experiment": "Cytotoxicity against human HepG2 cells after 48 hrs by MTT assay", "assay_type": "functional, cell-based", "conditions": "HepG2, 48 h"}, "MCF7 [3]": {"test_system": "MCF7", "experiment": "Cytotoxicity against human MCF7 cells after 48 hrs by MTT assay", "assay_type": "functional, cell-based", "conditions": "MCF7, 48 h"}, "SiHa": {"test_system": "SiHa", "experiment": "Cytotoxicity against human SiHa cells after 48 hrs by MTT assay", "assay_type": "functional, cell-based"}, "MCF7 [4]": {"test_system": "MCF7", "experiment": "Cytotoxicity against human MCF7 cells after 120 hrs by MTT assay", "assay_type": "functional", "conditions": "MCF7, 120 h"}, "[5]": {"target": "Tumour suppressor p53/oncoprotein Mdm2 (Homo sapiens, UniProt Q00987)", "sequence (P04637 whole entry)": "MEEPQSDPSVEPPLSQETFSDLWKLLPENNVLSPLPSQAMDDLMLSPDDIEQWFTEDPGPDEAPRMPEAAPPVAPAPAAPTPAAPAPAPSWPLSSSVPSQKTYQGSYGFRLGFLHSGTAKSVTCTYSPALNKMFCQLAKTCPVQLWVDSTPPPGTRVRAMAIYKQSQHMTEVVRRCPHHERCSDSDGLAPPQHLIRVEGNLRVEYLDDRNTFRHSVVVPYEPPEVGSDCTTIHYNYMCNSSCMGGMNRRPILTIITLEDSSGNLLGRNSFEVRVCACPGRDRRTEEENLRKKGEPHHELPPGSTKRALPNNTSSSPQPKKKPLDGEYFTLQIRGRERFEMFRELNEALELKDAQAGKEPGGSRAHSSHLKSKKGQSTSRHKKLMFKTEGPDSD", "sequence (Q00987 whole entry)": "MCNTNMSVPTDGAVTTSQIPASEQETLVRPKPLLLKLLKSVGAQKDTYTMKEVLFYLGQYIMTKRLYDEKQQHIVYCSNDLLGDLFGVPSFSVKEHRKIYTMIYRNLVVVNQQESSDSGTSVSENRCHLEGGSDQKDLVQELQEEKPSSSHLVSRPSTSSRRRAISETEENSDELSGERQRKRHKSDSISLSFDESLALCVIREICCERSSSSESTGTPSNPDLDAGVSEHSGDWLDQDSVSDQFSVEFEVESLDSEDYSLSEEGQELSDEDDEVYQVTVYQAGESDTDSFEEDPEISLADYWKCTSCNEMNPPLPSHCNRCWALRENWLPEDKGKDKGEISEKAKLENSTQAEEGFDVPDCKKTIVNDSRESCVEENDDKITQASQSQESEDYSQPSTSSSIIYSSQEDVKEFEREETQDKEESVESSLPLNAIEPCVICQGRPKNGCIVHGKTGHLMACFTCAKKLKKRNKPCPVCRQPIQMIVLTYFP", "experiment": "Inhibition of MDM2/P53 (unknown origin) protein interaction by fluorescent polarization assay"}, "[6]": {"conditions": "Homo sapiens, SiHa, 48 h, read-out: IC50"}}, "data": [{"smiles": "CC(C)Oc1ccc(C2CN(C)[C@]3(C(=O)Nc4ccccc43)[C@]23NC(=S)N(c2ccc(F)c(Cl)c2)C3=O)cc1", "note": "(stereo partly specified)", "values": [{"measurement": "IC50", "setting": "[1]", "value": 8.55, "unit": "µM"}, {"measurement": "IC50", "setting": "HEK293", "value": 13.5, "unit": "µM"}, {"measurement": "IC50", "setting": "[2]", "value": 7.4, "unit": "µM"}, {"measurement": "IC50", "setting": "HepG2", "value": 49.9, "unit": "µM"}, {"measurement": "IC50", "setting": "MCF7 [3]", "value": 20.2, "unit": "µM"}, {"measurement": "IC50", "setting": "SiHa; siha", "value": "Not Active"}]}, {"smiles": "CN1CC(c2ccc(Cl)cc2)[C@@]2(NC(=S)N(c3ccc(F)c(Cl)c3)C2=O)[C@@]12C(=O)Nc1ccccc12", "note": "(stereo partly specified)", "values": [{"measurement": "IC50", "setting": "[1]", "value": 7.78, "unit": "µM"}, {"measurement": "IC50", "setting": "HEK293", "value": 5.68, "unit": "µM"}, {"measurement": "IC50", "setting": "[2]", "value": 7.33, "unit": "µM"}, {"measurement": "IC50", "setting": "HepG2", "value": 9.08, "unit": "µM"}, {"measurement": "IC50", "setting": "MCF7 [3]", "value": 4.88, "unit": "µM"}, {"measurement": "IC50", "setting": "SiHa; [6]", "value": 7.65, "unit": "µM"}]}, {"smiles": "CC(C)Oc1ccc(C2CN(C)[C@]3(C(=O)Nc4ccc(Br)cc43)[C@]23NC(=S)N(c2ccc(F)c(Cl)c2)C3=O)cc1", "note": "(stereo partly specified)", "values": [{"measurement": "IC50", "setting": "[1]", "value": 38.8, "unit": "µM"}, {"measurement": "IC50", "setting": "HEK293", "value": 15.8, "unit": "µM"}, {"measurement": "IC50", "setting": "[2]", "value": 19.4, "unit": "µM"}, {"measurement": "IC50", "setting": "HepG2", "value": 34.6, "unit": "µM"}, {"measurement": "IC50", "setting": "MCF7 [3]", "value": 34.9, "unit": "µM"}, {"measurement": "IC50", "setting": "SiHa; siha", "value": "Not Active"}]}, {"smiles": "CCOc1ccc(N2C(=O)[C@@]3(NC2=S)C(c2ccc(Cl)cc2)CN(C)[C@]32C(=O)Nc3ccccc32)cc1", "note": "(stereo partly specified)", "values": [{"measurement": "IC50", "setting": "[1]", "value": 8.6, "unit": "µM"}, {"measurement": "IC50", "setting": "HEK293", "value": 9.1, "unit": "µM"}, {"measurement": "IC50", "setting": "[2]", "value": 8.57, "unit": "µM"}, {"measurement": "IC50", "setting": "HepG2", "value": 103, "unit": "µM"}, {"measurement": "IC50", "setting": "MCF7 [3]", "value": 87.7, "unit": "µM"}, {"measurement": "IC50", "setting": "SiHa; [6]", "value": 81.7, "unit": "µM"}]}, {"smiles": "CCc1ccc(C2CN(C)[C@]3(C(=O)Nc4ccccc43)[C@]23NC(=S)N(c2ccc(F)c(Cl)c2)C3=O)cc1", "note": "(stereo partly specified)", "values": [{"measurement": "IC50", "setting": "[1]", "value": 8.6, "unit": "µM"}, {"measurement": "IC50", "setting": "HEK293", "value": 12.5, "unit": "µM"}, {"measurement": "IC50", "setting": "[2]", "value": 8.45, "unit": "µM"}, {"measurement": "IC50", "setting": "HepG2", "value": 33.9, "unit": "µM"}, {"measurement": "IC50", "setting": "MCF7 [3]", "value": 19, "unit": "µM"}, {"measurement": "IC50", "setting": "SiHa; [6]", "value": 42.5, "unit": "µM"}]}, {"smiles": "CCOc1ccc(N2C(=O)[C@@]3(NC2=S)C(c2ccc(Cl)cc2)CN(C)[C@]32C(=O)Nc3ccc(Br)cc32)cc1", "note": "(stereo partly specified)", "values": [{"measurement": "IC50", "setting": "[1]", "value": "≥ 50", "unit": "µM"}, {"measurement": "IC50", "setting": "HEK293", "value": 28.6, "unit": "µM"}, {"measurement": "IC50", "setting": "[2]", "value": 16.3, "unit": "µM"}, {"measurement": "IC50", "setting": "HepG2", "value": 42.1, "unit": "µM"}, {"measurement": "IC50", "setting": "MCF7 [3]", "value": 34.9, "unit": "µM"}, {"measurement": "IC50", "setting": "SiHa; siha", "value": "Not Active"}]}, {"smiles": "CN1CC(c2ccc(Cl)cc2)[C@@]2(NC(=S)N(c3ccc(F)c(Cl)c3)C2=O)[C@@]12C(=O)Nc1ccc(Br)cc12", "note": "(stereo partly specified)", "values": [{"measurement": "IC50", "setting": "[1]", "value": 9.9, "unit": "µM"}, {"measurement": "IC50", "setting": "HEK293", "value": 10.3, "unit": "µM"}, {"measurement": "IC50", "setting": "[2]", "value": 8.65, "unit": "µM"}, {"measurement": "IC50", "setting": "HepG2", "value": 11.1, "unit": "µM"}, {"measurement": "IC50", "setting": "MCF7 [3]", "value": 6.84, "unit": "µM"}, {"measurement": "IC50", "setting": "SiHa; [6]", "value": 12.1, "unit": "µM"}]}, {"smiles": "CCc1ccc(C2CN(C)[C@]3(C(=O)Nc4ccc(Br)cc43)[C@]23NC(=S)N(c2ccc(F)c(Cl)c2)C3=O)cc1", "note": "(stereo partly specified)", "values": [{"measurement": "IC50", "setting": "[1]", "value": 11.6, "unit": "µM"}, {"measurement": "IC50", "setting": "HEK293", "value": 15.6, "unit": "µM"}, {"measurement": "IC50", "setting": "[2]", "value": 33.5, "unit": "µM"}, {"measurement": "IC50", "setting": "HepG2", "value": 23, "unit": "µM"}, {"measurement": "IC50", "setting": "MCF7 [3]", "value": 15.5, "unit": "µM"}, {"measurement": "IC50", "setting": "SiHa; [6]", "value": 79.1, "unit": "µM"}]}, {"smiles": "CCOc1cc(C(C)(C)C)ccc1C1=N[C@@](C)(c2ccc(Cl)cc2)[C@@](C)(c2ccc(Cl)cc2)N1C(=O)N1CCN(CCS(C)(=O)=O)CC1", "values": [{"measurement": "CC50", "setting": "MCF7 [4]", "value": 0.94, "unit": "µM"}]}, {"smiles": "CC(C)CC(N/C(C(=O)NCc1ccccc1)=C1\\C(C(=O)NO)=Nc2cc(Cl)ccc21)C(=O)NO", "note": "(stereo unspecified)", "values": [{"measurement": "Ki", "setting": "[5]", "value": 0.9, "unit": "µM"}]}, {"smiles": "COc1ccc(C2=N[C@@H](c3ccc(Cl)cc3)[C@@H](c3ccc(Cl)cc3)N2C(=O)N2CCNC(=O)C2)c(OC(C)C)c1", "note": "[NUTLIN-3]", "values": [{"measurement": "IC50", "setting": "HepG2", "value": 5.1, "unit": "µM"}]}]}
